Source: patent publication US20250152528A1, “RAPID RELIEF SPRAY” (HALEON US HOLDINGS LLC, priority 2022, published 2025)
Structures can show the parent of a compound that is named as a salt.

Experiments:
[1] = Two weak acid combinations with lidocaine citrate: pH, precipitation and stability at 4° C. for 3 months; conditions: for colour of solution after change from clear: ambient conditions; for Observation: appearance of solution; for Time to Lidocaine Citrate Precipitation: kept at 4° C. for 3 months; for pH: lidocaine citrate solution (25 wt. % ethanol, 15 wt. % glycerin, 2.5 wt. % propylene glycol) with 2 wt. % acidifying agent
Description: The pH was then measured, and stability was tested by keeping the resulting solutions at 4° C. for 3 months.

[2] = cited from earlier work
[3] = 5 wt. % lidocaine free base in water with 24 wt. % isopropyl alcohol, 54 wt. % ethanol, or 10 wt. % isopropyl alcohol and 20 wt. % ethanol; pH 4.0 and 3.5 by excess citric acid
[4] = has been observed; in aqueous solutions; cited from earlier work
[5] = Crystallization inhibitors and free base lidocaine crystallization in low pH solutions; assay type: physicochemical; conditions: 5.0 wt. % lidocaine free base, Example 1 composition; 0.5, 1.0, 2.0 wt. % Kollidon VA 64, PVP K-90, PVP K-25 or PVP K-30; pH=3.5 and pH=4 by excess citric acid; 24 samples
[6] = 5.0 wt. % lidocaine free base, 3.6 wt. % citric acid, 15 wt. % glycerin, 25 wt. % ethanol, water; pH adjusted between 4.5 to 3.5 with excess citric acid at 25° C.
[7] = 2% acidifying agent, pH range of 4.2 to 3.3

Compound	Observation ([1]; 2 wt. % acidifying agent)	Time to Lidocaine Citrate Precipitation ([1]; 2 wt. % acidifying agent)	pH [1]	other results
O=C(O)/C=C/C(=O)O [Fumaric acid]	Oxidized	Not observed	3.72	colour of solution after change from clear ([1]; 2% acidifying agent): pale yellow solutions; prevention of lidocaine citrate precipitation [1, 7]: prevented lidocaine citrate precipitation
CC(O)C(=O)O (stereo not shown) [Lactic acid]	Clear	Not observed	4.05	
CNC[C@H](O)c1cccc(O)c1 [phenylephrine HCl]				pH of solutions in which unstable ([2]; approximately): > 4
O=C(O)CCC(=O)O [Succinic acid]	Clear	Not observed	4.23	
CNC[C@H](O)c1cccc(O)c1 [Phenylephrine]				pH of solutions in which stable ([2]; background statement): ≤ 4.0
CC(=O)O [Acetic Acid]	Clear	Not observed	4.00	
lidocaine citrate				crystallization in aqueous alcohol cosolvents [3]: crystallized out of all samples as an opaque layer; pH of lower pH solutions in which the salt crystallizes out (citrate salt generated in situ): ≤ 4.5
O=C(O)[C@H](O)[C@@H](O)C(=O)O [L-Tartaric acid]	Clear	Not observed	3.71	
O=C(O)CCCCC(=O)O [Adipic Acid]				prevention of lidocaine citrate precipitation ([1]; 5% acidifying agent): did not prevent precipitation; Observation ([1]; 5% acidifying agent): Clear; Time to Lidocaine Citrate Precipitation ([1]; 5% acidifying agent): 2 weeks
lidocaine malate				crystallization at low pH on storage (1:1 molar lidocaine free base and malic acid in water, excess malic acid to pH 3.6, several weeks at 4° C.): No lidocaine malate crystallization was observed
O=C(O)CC(O)C(=O)O (stereo not shown) [Malic Acid]	Clear	Not observed	3.93	amount at which irritant to a healthy skin [4]: ≥ 5 wt. %
CCN(CC)CC(=O)Nc1c(C)cccc1C [lidocaine free base, lidocaine]				lidocaine crystallization with crystallization inhibitors [5]: thick layer of lidocaine crystallization; pH at which precipitation of lidocaine starts [6]: 4.0
O=C(O)/C=C\C(=O)O [Maleic acid]	Oxidized	Not observed	3.32	colour of solution after change from clear ([1]; 2% acidifying agent): pale yellow solutions; prevention of lidocaine citrate precipitation [1, 7]: prevented lidocaine citrate precipitation
O=C1O[C@H]([C@@H](O)CO)C(O)=C1O [Ascorbic acid]				prevention of lidocaine citrate precipitation ([1]; 5% acidifying agent): prevented lidocaine citrate precipitation; colour of solution after change from clear ([1]; 5% acidifying agent): orange; Observation ([1]; 5% acidifying agent): Oxidized; Time to Lidocaine Citrate Precipitation ([1]; 5% acidifying agent): Not observed
